From ChEMBL document CHEMBL4483862, “Open-source discovery of chemical leads for next-generation chemoprotective antimalarials” (2018)

Tested on: Plasmodium berghei
Test: Luciferase/luciferin-expressing antifolate-resistant parasites were used to infect a culture of HepG2 cells that were pre-incubated with compounds. Infected hepatocytes emit light due to the luciferase reaction. Assay results are presented as the percent inhibition of light emission compared to control. […]
Format: functional
Settings: sporozoite; for IC90: read-out: LUCIFERASE INFECTION ASSAY - IC90

SMILES | IC90 [µM] | also measured
C=CCCC(=O)Nc1ccc(Br)cn1 | > 12.9 | IC50 (HEPG2TOX_HILL_SLOPE 2.37, HEPG2TOX_R_SQUARED 0.964, PBLUC_HILL_SLOPE 2.08, PBLUC_R_SQUARED 0.0582, read-out: LUCIFERASE INFECTION ASSAY - IC50): 5.2 µM
Cn1cccc1C(=O)Nc1nc(-c2ccccn2)cs1 | 4.04 | IC50 (HEPG2TOX_HILL_SLOPE 2.43, HEPG2TOX_R_SQUARED 0.643, PBLUC_HILL_SLOPE 14.5, PBLUC_R_SQUARED 0.519, read-out: LUCIFERASE INFECTION ASSAY - IC50): 3.47 µM
Cc1c(-c2ccccc2)sc2ncnc(NCc3nnc4ccccn34)c12 | > 10 | IC50 (HEPG2TOX_HILL_SLOPE 2.41, HEPG2TOX_R_SQUARED 0.925, PBLUC_HILL_SLOPE 1.56, PBLUC_R_SQUARED 0.71, read-out: LUCIFERASE INFECTION ASSAY - IC50): 2.86 µM
Clc1ccc2[nH]cc(CCNc3nc(Cl)nc4nc[nH]c34)c2c1 | 0.6 | IC50 (HEPG2TOX_HILL_SLOPE 2.4, HEPG2TOX_R_SQUARED 0.982, PBLUC_HILL_SLOPE 2.19, PBLUC_R_SQUARED 0.753, read-out: LUCIFERASE INFECTION ASSAY - IC50): 0.22 µM
Cc1sc(NC(=O)c2ccc(Cn3cncn3)cc2)nc1-c1ccc(Br)cc1 | > 10 | IC50 (HEPG2TOX_HILL_SLOPE 2.39, HEPG2TOX_R_SQUARED 0.794, PBLUC_HILL_SLOPE 2.3, PBLUC_R_SQUARED 0.342, read-out: LUCIFERASE INFECTION ASSAY - IC50): > 10 µM
Cc1cn2c(/C=c3\s/c(=C\C(=O)c4ccccc4C)n(C)c3=O)c(C)nc2s1 | 0.619 | IC50 (HEPG2TOX_HILL_SLOPE 2.41, HEPG2TOX_R_SQUARED 0.966, PBLUC_HILL_SLOPE 72.2, PBLUC_R_SQUARED 0.61, read-out: LUCIFERASE INFECTION ASSAY - IC50): 0.6 µM
CCC1CCc2sc(C(=O)NNC(=O)c3cnccn3)cc2C1 (centres undefined) | > 10 | IC50 (HEPG2TOX_HILL_SLOPE 2.38, HEPG2TOX_R_SQUARED 0.712, PBLUC_HILL_SLOPE 3.73, PBLUC_R_SQUARED 0.532, read-out: LUCIFERASE INFECTION ASSAY - IC50): 6.76 µM
CC(C)(C)CNC(=S)N/N=C/c1cc(Cl)cc(Cl)c1O | > 9.87 | IC50 (HEPG2TOX_HILL_SLOPE 2.41, HEPG2TOX_R_SQUARED 0.728, PBLUC_HILL_SLOPE 9.45, PBLUC_R_SQUARED 0.267, read-out: LUCIFERASE INFECTION ASSAY - IC50): 9.07 µM
COc1ccc(C(=O)C(/C=N/N)=N/Nc2cc(C)cc(C)c2)cc1 | 5.98 | IC50 (HEPG2TOX_HILL_SLOPE 2.41, HEPG2TOX_R_SQUARED 0.984, PBLUC_HILL_SLOPE 5.05, PBLUC_R_SQUARED 0.51, read-out: LUCIFERASE INFECTION ASSAY - IC50): 3.87 µM
O=S(=O)(c1ccc(Cl)s1)N1CCN(c2ncnc3ccccc23)CC1 | > 10 | IC50 (HEPG2TOX_HILL_SLOPE 2.41, HEPG2TOX_R_SQUARED 0.894, PBLUC_HILL_SLOPE 2.42, PBLUC_R_SQUARED 0.407, read-out: LUCIFERASE INFECTION ASSAY - IC50): 4.98 µM
O=C(Nc1ccccc1)Nc1cc(NC(=O)Nc2ccccc2)cc(C(F)(F)F)c1 | > 7.96 | IC50 (HEPG2TOX_HILL_SLOPE 2.43, HEPG2TOX_R_SQUARED 0.913, read-out: LUCIFERASE INFECTION ASSAY - IC50): > 7.96 µM
Cc1cc(O)c(/C=N/Nc2ncc(C(F)(F)F)cc2Cl)c(=O)o1 | > 9.49 | IC50 (HEPG2TOX_HILL_SLOPE 2.38, HEPG2TOX_R_SQUARED 0.982, PBLUC_HILL_SLOPE 7.99, PBLUC_R_SQUARED 0.344, read-out: LUCIFERASE INFECTION ASSAY - IC50): 7.73 µM
CN(CC(=O)Nc1ccc(OC(F)(F)F)cc1)Cc1cc([N+](=O)[O-])ccc1O | 3.33 | IC50 (HEPG2TOX_HILL_SLOPE 2.38, HEPG2TOX_R_SQUARED 0.828, PBLUC_HILL_SLOPE 9.41, PBLUC_R_SQUARED 0.824, read-out: LUCIFERASE INFECTION ASSAY - IC50): 2.64 µM
O=C(c1cccs1)c1c(-c2ccccc2)cc2ccccn12 | 3.73 | IC50 (HEPG2TOX_HILL_SLOPE 2.42, HEPG2TOX_R_SQUARED 0.887, PBLUC_HILL_SLOPE 12.4, 11.2, PBLUC_R_SQUARED 0.720, 0.734, read-out: LUCIFERASE INFECTION ASSAY - IC50): 3.1 µM
Cc1ccc(/C(C#N)=C/c2ccc3c(c2)OCO3)cc1 | > 12.5 | IC50 (HEPG2TOX_HILL_SLOPE 2.41, HEPG2TOX_R_SQUARED 0.881, PBLUC_HILL_SLOPE 2.57, PBLUC_R_SQUARED 0.299, read-out: LUCIFERASE INFECTION ASSAY - IC50): 9.11 µM
Cc1cc(Br)c(NC(=S)NC(=O)C(C)(C)C)c(Br)c1 | > 8.09 | IC50 (HEPG2TOX_HILL_SLOPE 2.38, HEPG2TOX_R_SQUARED 0.209, read-out: LUCIFERASE INFECTION ASSAY - IC50): > 8.09 µM

SMILES | IC90 [µM] | also measured
CC(=O)Nc1nc(C(=O)Nc2ccc(Nc3ccccc3)cc2)cs1 | > 10 | IC50 (HEPG2TOX_HILL_SLOPE 2.43, HEPG2TOX_R_SQUARED 0.519, PBLUC_HILL_SLOPE 2.7, PBLUC_R_SQUARED 0.347, read-out: LUCIFERASE INFECTION ASSAY - IC50): 4.68 µM
COc1ccc(-c2cnc3cnc(-c4cc(OC)cc(OC)c4)cn23)cc1 | 3.63 | IC50 (HEPG2TOX_HILL_SLOPE 2.43, HEPG2TOX_R_SQUARED 0.949, PBLUC_HILL_SLOPE 13, PBLUC_R_SQUARED 0.663, read-out: LUCIFERASE INFECTION ASSAY - IC50): 3.06 µM
CNc1ccc2ncc(-c3ccccc3)n2n1 | 13.6 | IC50 (HEPG2TOX_HILL_SLOPE 2.41, HEPG2TOX_R_SQUARED 0.973, PBLUC_HILL_SLOPE 2.77, PBLUC_R_SQUARED 0.442, read-out: LUCIFERASE INFECTION ASSAY - IC50): 6.15 µM
CCOC(=O)c1sc(N)c(C#N)c1COC(=O)C1(c2cccc(F)c2)CCCC1 | 8.29 | IC50 (HEPG2TOX_HILL_SLOPE 2.42, HEPG2TOX_R_SQUARED 0.924, PBLUC_HILL_SLOPE 2.7, PBLUC_R_SQUARED 0.388, read-out: LUCIFERASE INFECTION ASSAY - IC50): 3.67 µM
Cc1cccc(C)c1NC(=S)NC1CC(C)CC(C)(C)C1 (centres undefined) | 5.5 | IC50 (HEPG2TOX_HILL_SLOPE 2.42, HEPG2TOX_R_SQUARED 0.462, PBLUC_HILL_SLOPE 8.54, PBLUC_R_SQUARED 0.744, read-out: LUCIFERASE INFECTION ASSAY - IC50): 4.25 µM
O=C(Nc1nc2ccccc2[nH]1)c1ccoc1 | > 10 | IC50 (HEPG2TOX_HILL_SLOPE 2.41, HEPG2TOX_R_SQUARED 0.931, read-out: LUCIFERASE INFECTION ASSAY - IC50): > 10 µM
CC(=O)Nc1cccc(-c2ccc3ncc(-c4ccc5c(c4)OCO5)n3n2)c1 | 3.94 | IC50 (HEPG2TOX_HILL_SLOPE 2.37, HEPG2TOX_R_SQUARED 0.964, PBLUC_HILL_SLOPE 13.4, PBLUC_R_SQUARED 0.492, read-out: LUCIFERASE INFECTION ASSAY - IC50): 3.34 µM
CC(=O)O[C@H]1CC[C@]23C(=O)O[C@]45CC[C@H](C6=CC(=O)OC6)[C@@]4(C)CCC2C5CC[C@]3(O)C1 | 0.747 | IC50 (HEPG2TOX_HILL_SLOPE 2.43, HEPG2TOX_R_SQUARED 0.931, PBLUC_HILL_SLOPE 2.64, PBLUC_R_SQUARED 0.666, read-out: LUCIFERASE INFECTION ASSAY - IC50): 0.325 µM
Clc1ccc2c(c1)C(Nc1ccc3nnnn3n1)CCS2 (centres undefined) | > 10 | IC50 (HEPG2TOX_HILL_SLOPE 2.38, HEPG2TOX_R_SQUARED 0.171, read-out: LUCIFERASE INFECTION ASSAY - IC50): > 10 µM
C=CCNC(=O)NC(=O)CSc1nnc(-c2ccc(OC)cc2)n1-c1cccc(C(F)(F)F)c1 | 6.91 | IC50 (HEPG2TOX_HILL_SLOPE 2.39, HEPG2TOX_R_SQUARED 0.903, PBLUC_HILL_SLOPE 3.60, 2.97, PBLUC_R_SQUARED 0.951, 0.459, read-out: LUCIFERASE INFECTION ASSAY - IC50): 3.56 µM
COc1ccc(Nc2c(Cl)cc(OC)cc2Cl)cc1 | 3.85 | IC50 (HEPG2TOX_HILL_SLOPE 2.37, HEPG2TOX_R_SQUARED 0.991, PBLUC_HILL_SLOPE 4.31, PBLUC_R_SQUARED 0.544, read-out: LUCIFERASE INFECTION ASSAY - IC50): 2.31 µM
Clc1ccccc1Nc1cc2c(cn1)ncn2Cc1ccco1 | > 10 | IC50 (HEPG2TOX_HILL_SLOPE 2.43, HEPG2TOX_R_SQUARED 0.709, PBLUC_HILL_SLOPE 4.59, PBLUC_R_SQUARED 0.452, read-out: LUCIFERASE INFECTION ASSAY - IC50): 7.52 µM
CCn1nc(C(=O)NCc2ccc(OC)cc2)c2c1CCN(C(=O)C1Cc3ccccc3O1)C2 (centres undefined) | 6.24 | IC50 (HEPG2TOX_HILL_SLOPE 2.42, HEPG2TOX_R_SQUARED 0.906, PBLUC_HILL_SLOPE 2.97, PBLUC_R_SQUARED 0.096, read-out: LUCIFERASE INFECTION ASSAY - IC50): 2.98 µM
c1ccc(SCc2ccc(-c3nc4ccccc4s3)cc2)nc1 | 8.53 | IC50 (HEPG2TOX_HILL_SLOPE 2.39, HEPG2TOX_R_SQUARED 0.939, PBLUC_HILL_SLOPE 0.884, PBLUC_R_SQUARED 0.644, read-out: LUCIFERASE INFECTION ASSAY - IC50): 0.71 µM
COc1cc(OC)cc(-c2cn3c(-c4ccc5ncccc5c4)cnc3cn2)c1 | 6.15 | IC50 (HEPG2TOX_HILL_SLOPE 2.4, HEPG2TOX_R_SQUARED 0.938, PBLUC_HILL_SLOPE 4.1, PBLUC_R_SQUARED 0.34, read-out: LUCIFERASE INFECTION ASSAY - IC50): 3.6 µM
Cn1nc(-c2ccccc2)c(-c2nc3ccccc3n2C)c1-c1ccccc1 | 8.97 | IC50 (HEPG2TOX_HILL_SLOPE 2.41, HEPG2TOX_R_SQUARED 0.613, PBLUC_HILL_SLOPE 4.44, PBLUC_R_SQUARED 0.302, read-out: LUCIFERASE INFECTION ASSAY - IC50): 5.47 µM
